# Source: patent US11357862B2, “Peptide-conjugated nanoparticles for targeting, imaging, and treatment of prostate cancer” (Academia Sinica, priority 2016, dated 2022)
# What was measured:
# [1] = Pharmacokinetics of doxorubicin formulations; type: in vivo, NOD/SCID mice; conditions: 2 mg doxorubicin/kg, tail vein
# Protocol: Blood samples were drawn at selected time points, and quantities of doxorubicin were analyzed.
# [2] = system: PC3-Luc orthotopic tumors; assay: Orthotopic implantation and therapeutic study; type: in vivo, SCID mice; conditions: doxorubicin 1 mg/kg, vinorelbine 2 mg/kg i.v. twice a week, docetaxel 5 mg/kg i.p. once a week, 4 weeks
# Protocol: PC3 cells were transfected with Lenti-Luc virus (lentivirus containing the luciferase gene), and a stable PC3-Luc cell line was selected by puromycin screening. PC3-Luc cells (5×10^5 cells in 20 μl PBS per mouse) were orthotopically transplanted into the dorsal lobe of the prostate of SCID mice after anaesthesia with Avertin at a dose of 250 mg/kg. Seven days later, all mice bearing tumors were randomly divided into five groups (n=8 per group) based on photon flux indices detected using Xenogen IVIS® 200 Luminal Image. Tumor-bearing mice were treated with different formulations of anti-cancer drugs or PBS. Tumor development was recorded every 7 days. The body weights and survival rates were measured.
# Mice were injected with vehicle (PBS), docetaxel (5 mg/kg), liposomal drugs, or targeting liposomal drugs (doxorubicin 1 mg/kg; vinorelbine 2 mg/kg).
# [3] = system: PC3 prostate cancer xenografts; assay: Immunohistochemical localization of phages after i.v. injection; type: in vivo, SCID mice; conditions: co-injected with PC204
# Protocol: (§1) SCID mice were injected s.c. with 5×10^6 prostate cancer cells. Once the prostate cancer xenografts reached a suitable size (about 200˜300 mm^3), the mice were injected i.v. with 2×10^9 pfu phages in the presence or absence of 100 μg synthetic peptides. After ten minutes, the mice were sacrificed and perfused with 50 ml PBS to remove unbound phages. Selected organs and xenograft tumors were removed, and the phage titer recovered by E. coli strain ER2738 was measured using IPTG/X-Gal spray. Partial organs and tumors were embedded using optimal cutting temperature compound (O.C.T.) to prepare sections for immunohistochemical staining.
# The tissue samples from in vivo phage homing experiments were embedded in frozen blocks. Phage distribution in each tissue was assessed by first removing O.C.T. with cold PBS, and then fixing the frozen sections with 4% paraformaldehyde for 10 min. The sections were incubated with 1% BSA for 30 min to block non-specific binding. After washing, the sections were incubated with mouse anti-M13 antibodies at a dilution of 1:250 for 1 hour, followed by treatment with polymer-based SUPER SENSITIVE™ IC detection system. In brief, the sections were incubated with SUPER […]™ reagent for 20 min and poly-HRP reagent for 30 min. DAB was used as a chromogen to visualize peroxidase activity, and the reaction was stopped by the addition of PBS. […]
# [4] = system: PC3 prostate cancer xenografts; assay: In vivo phage homing and peptide competitive inhibition; parameters: species or system SCID mice; conditions: co-injection with PC204
# Protocol: as §1
# [5] = system: DU145 prostate cancer xenografts; assay: as above; parameters: species or system SCID mice; conditions: co-injection with PC204
# Protocol: as §1
compound,measurement,setting,value
"COc1cccc2c1C(=O)c1c(O)c3c(c(O)c1C2=O)C[C@@](O)(C(=O)CO)C[C@@H]3O[C@H]1C[C@H](N)[C@H](O)[C@H](C)O1 [FD, doxorubicin]",plasma pharmacokinetic profile of doxorubicin,[1],poor pharmacokinetic profile
CC(=O)O[C@@]12CO[C@@H]1C[C@H](O)[C@@]1(C)C(=O)[C@H](O)C3=C(C)[C@@H](OC(=O)[C@H](O)[C@@H](NC(=O)OC(C)(C)C)c4ccccc4)C[C@@](O)([C@@H](OC(=O)c4ccccc4)[C@H]21)C3(C)C [docetaxel],median survival times,[2],58 days
"SP204: synthetic targeting peptide KQFSALPFNFYT, SEQ ID NO: 8, the ligand displayed on phage PC204 (Phage clone No. 204 displayed peptide sequence)",phage immunoreactivity in tumor tissue on co-injection of PC204 with peptide,[3],no immunoreactivity was observed
same,inhibition of PC204 binding to tumor tissue by co-injected peptide,[4],5.2 fold
same,inhibition of PC204 binding to tumor tissue by co-injected peptide,[5],2.87 fold
